{"source": "paper PMC7659962", "about": "“Essential Oils from Monarda fistulosa: Chemical Composition and Activation of Transient Receptor Potential A1 (TRPA1) Channels” (Molecules, 2020)", "data": [{"molecular_target": "T1, rTRPA1 (Rattus norvegicus, UniProt Q6RI86)", "T1 construct": "gene Trpa1", "T1 sequence (Q6RI86 whole entry)": "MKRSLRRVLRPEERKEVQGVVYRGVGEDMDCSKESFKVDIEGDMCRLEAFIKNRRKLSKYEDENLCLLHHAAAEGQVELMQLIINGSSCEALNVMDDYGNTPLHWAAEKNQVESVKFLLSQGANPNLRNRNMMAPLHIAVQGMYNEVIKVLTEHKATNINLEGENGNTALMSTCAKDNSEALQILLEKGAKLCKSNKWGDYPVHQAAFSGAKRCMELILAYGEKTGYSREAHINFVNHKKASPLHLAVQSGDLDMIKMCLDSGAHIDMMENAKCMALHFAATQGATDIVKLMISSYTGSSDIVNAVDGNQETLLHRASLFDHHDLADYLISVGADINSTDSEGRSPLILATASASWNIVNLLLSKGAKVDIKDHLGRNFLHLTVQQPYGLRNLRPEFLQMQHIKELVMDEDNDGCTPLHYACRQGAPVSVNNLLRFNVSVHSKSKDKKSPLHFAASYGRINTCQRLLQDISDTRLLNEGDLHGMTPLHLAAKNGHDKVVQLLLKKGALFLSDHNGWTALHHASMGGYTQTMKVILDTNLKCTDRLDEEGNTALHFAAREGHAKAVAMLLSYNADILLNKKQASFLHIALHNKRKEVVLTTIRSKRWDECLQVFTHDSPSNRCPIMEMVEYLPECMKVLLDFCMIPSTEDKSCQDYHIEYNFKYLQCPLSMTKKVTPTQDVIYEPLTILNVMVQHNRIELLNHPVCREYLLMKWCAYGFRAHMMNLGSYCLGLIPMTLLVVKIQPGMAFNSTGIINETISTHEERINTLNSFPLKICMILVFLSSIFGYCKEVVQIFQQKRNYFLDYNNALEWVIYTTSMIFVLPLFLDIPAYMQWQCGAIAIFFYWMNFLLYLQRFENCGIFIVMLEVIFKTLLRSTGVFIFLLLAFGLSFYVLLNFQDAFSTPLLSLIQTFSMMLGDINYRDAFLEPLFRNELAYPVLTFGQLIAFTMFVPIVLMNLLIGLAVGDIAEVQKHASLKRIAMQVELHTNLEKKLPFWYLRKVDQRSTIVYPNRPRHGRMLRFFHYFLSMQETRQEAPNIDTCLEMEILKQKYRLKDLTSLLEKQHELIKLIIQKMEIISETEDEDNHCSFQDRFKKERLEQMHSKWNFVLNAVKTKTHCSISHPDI", "assay": "Fura-2 calcium imaging in stably transfected HEK […] cells", "format": "cell-based", "conditions": "100 µM; agonist; HBSS pH […]; […] ratio change from baseline; blocked by HC-030031; nontransfected HEK cells as control", "values": [{"smiles": "Cc1ccc(C(C)C)cc1O", "note": "[Carvacrol]", "HEK Cells / rTRPA1 / [Ca^2+]i Change": "0.340 ± 0.012"}, {"smiles": "Cc1ccc(C(C)C)c(O)c1", "note": "[Thymol]", "HEK Cells / rTRPA1 / [Ca^2+]i Change": "0.849 ± 0.013"}, {"smiles": "C=CC(=C)CCC=C(C)C", "note": "[β-Myrcene]", "HEK Cells / rTRPA1 / [Ca^2+]i Change": "0.111 ± 0.003"}]}]}
